Data from a melting point compilation (Tetko et al.; mined from patent text by program, amines drawn as free bases though some values may be those of a salt).

| Compound | melting point |
| --- | --- |
| CCCCCCCCCCN1CCCN(O)C1=O | 45 to 46 °C |
| CCCCc1nn2cc(CC)nc2n1Cc1ccc(-c2ccccc2-c2nnn[nH]2)cc1 | > 100 °C |
| CCCOc1ccc(CO)nc1OCc1ccccc1 | 50 to 51 °C |
| CCCCCCCC=CC1=Nc2ccc(F)cc2C(=O)C1C (stereo unspecified) | 192 to 193 °C |
| N#Cc1nn(-c2c(Cl)cc(C(F)(F)F)cc2Cl)c(N)c1-c1ccccc1C(F)(F)F | 161 °C |
| CN1CCN(C(=O)c2cc3ccccc3c(=O)[nH]2)CC1 | 170 to 172 °C |
| COC(=O)C1CCN2C(=O)C(=O)c3cc([N+](=O)[O-])cc1c32 (stereo unspecified) | 144 to 145 °C |
| OCC#Cc1cnc(Cl)nc1NC1CCCC1 | 162 to 163 °C |
| C=C(CCC(C)C1CCC2C3=C(C(=O)CC21C)C1(C)CCC(=O)C(C)C1CC3)C(C)C(=O)OC (stereo unspecified) | 100 to 102 °C |
| Cc1cc(F)ccc1-c1cc(N2CCS(=O)(=O)CC2)ncc1N(C)C(=O)C(C)(C)c1cc(C(F)(F)F)cc(C(F)(F)F)c1 | 135 to 138 °C |
| CC(=O)Nc1c(-c2ccccc2)c(=O)[nH]c2cc(Cl)ccc12 | 275 to 277 °C |
| Cc1c(C)c2c(c(C)c1N)CC(C)(CN1CCC(OCCCc3ccccc3)CC1)O2 (stereo unspecified) | 53 to 54 °C |
| CCCCN1CCn2c1nc(C(=O)NCc1ccc(F)cc1-n1cnc(C)n1)c(O)c2=O | 214 °C |
| CCOc1nc(N)n2nc(-c3ccco3)nc2n1 | 211 to 213 °C |
| O=c1oc2c(-c3ccccc3)cccc2c(OCCN2CCOCC2)c1-c1ccccc1 | 106 to 108 °C |
| COc1ccc(-c2cc(COCCc3cccc(NS(=O)(=O)C(F)(F)F)c3)ccc2F)cc1 | 70 to 71 °C |
| COc1ccc2c(c1)C(=O)CC(C)(C)O2 | 71 to 73 °C |
| Cc1c(N2CC3CN(Cc4ccccc4)CC3C2)nn2c(-c3ccnc(NC(=O)OC(C)(C)C)c3)c(-c3ccc(F)cc3)nc2c1C (stereo unspecified) | 214 to 216 °C |
| CCOc1nc(C(=O)O)c2c(n1)nc(OCC)n2Cc1ccc(-c2ccccc2-c2nnn[nH]2)cc1 | 140 to 141 °C |
| O=C(Nc1cccc(C(F)(F)F)c1)N1CCCCc2cc(Oc3cc(Cl)ncn3)ccc21 | 120 °C |
| CC(C)(COc1ccc(CSC2NC(=O)CC2=O)cc1)c1ccccc1 (stereo unspecified) | 107 to 108 °C |
| CC(C)(C)OC(=O)c1ccc(C#Cc2cnc3nc(NC(=O)C(C)(C)C)nc(O)c3c2)cc1 | > 250 °C |
| CC(=O)Oc1ccc2c(c1)CC1(C)Cc3ccccc3C1=CC2C (stereo unspecified) | 131 to 133 °C |
| Cc1cccc(C(=O)n2nc(Nc3cccc(OCC(=O)NCCN4CCOCC4)c3)nc2N)c1 | 145 to 147 °C |

| Compound | melting point |
| --- | --- |
| Oc1ccc(C2(c3ccc(O)cc3)CCCCC2)cc1 | 181 to 182 °C |
| CC(O)c1onc(-c2ccccc2Cl)c1C(=O)c1nnn(Cc2cc(C(F)(F)F)cc(C(F)(F)F)c2)c1N1CCOCC1 (stereo unspecified) | 145 to 146 °C |
| CCN(CC)CCN(CCN1CCCCC1)c1ccc(-c2nc3cc(Cl)c(Cl)cc3[nH]2)cc1 | 160 to 163 °C |
| Nc1cc([N+](=O)[O-])c[nH]c1=O | 200 to 201 °C |
| O=C(O)c1ccc(OCCC(c2ccccc2)(c2ccccc2)c2ccccc2)cc1 | 201 to 202 °C |
| CC1(C)Nc2cccc3cccc(c23)N1 | 114 to 115 °C |
| O=C(OCc1ccccc1O)c1cc(O)c2c(c1)C(=O)c1cccc(O)c1C2=O | 125 to 130 °C |
| O=[N+]([O-])c1cc(Cl)c2cccnc2c1O | 201 to 202 °C |
| COc1ccc(CCN2CCN(C(=O)c3ccc(N(CCOC(C)C)C(=O)CCl)cc3)CC2)cc1 | 139 to 140 °C |
| COc1cc(OC)c2c(=O)[nH]c(-c3cc(C)c(OCCO)c(C)c3)cc2c1 | 193 to 195 °C |
| O=[N+]([O-])c1ccc(OC23CC4CC(CC(C4)C2)C3)c2ccccc12 | 126 to 128 °C |
| O=c1cc(-c2ccncn2)nc2n1CCOCC2Br (racemic) | 176 to 178 °C |
| CCN1CC(=O)C(C#N)=C1N | 278 to 280 °C |
| c1cnnc(N2CCN(CCCOc3ccc(C4=NCCO4)cc3)CC2)c1 | 145 °C |
| CN(C)NC(=O)N(C)C1c2ccccc2Oc2ccccc21 | 120 to 123 °C |
| CCOC(=O)COC1CCN(C(=O)[C@H](C)OCc2ccc(C(N)=NO)cc2)CC1 | 137 to 138 °C |
| COc1cc(OC)nc(NC(=O)Oc2ccccc2)n1 | 118 to 119 °C |
| Nc1ccc2nccnc2c1Br | 155 to 156 °C |
| CCCn1c(-c2ccc(I)cc2)nc2cc(C#N)c(C#N)cc21 | 208 to 209 °C |
| COC(=O)CC(NC(=O)C1CC=CCC1)C(C)=O (stereo unspecified) | 69 to 70 °C |
| O=C(O)c1ccc(C(F)(F)F)cc1[N+](=O)[O-] | 136 to 138 °C |
| CCc1nc(N)nc(N)c1CCC(C)c1cccc(C(F)(F)F)c1 (stereo unspecified) | 93 to 96 °C |
| c1ccc(C2C3=NCCN3CCc3ccccc32)cc1 (stereo unspecified) | 122 to 123 °C |
| O=C(CCl)N1CC(c2ccccc2)c2ccccc21 (stereo unspecified) | 76 to 78 °C |

| Compound | melting point |
| --- | --- |
| CCOC(=O)c1ccc(-c2nc3ccccc3s2)cc1 | 132 to 134 °C |
| CC1(C)C(c2ccc(S(C)(=O)=O)cc2)=C(c2ccccc2)C1(C)O (stereo unspecified) | 114 to 115 °C |
| CCOC(=O)c1ccc(S(C)(=O)=O)c(-c2cc(C)no2)c1C | 83 to 86 °C |
| COc1ccc(N2CCN(C(=O)NCCN(C)C)CC2)cc1 | 79 to 82 °C |
| COc1nnc2n1C=Cc1ccccc1C2C (stereo unspecified) | 101 to 102 °C |
| O=C(O)c1ccc(Cc2cc3cc(C(F)(F)F)ccc3n2S(=O)(=O)c2cccc(C3CC3)c2)cc1 | 147 °C |
| Nc1cccc(-c2ccc(CCN3Cc4ccccc4C3)cc2)n1 | 140 to 143 °C |
| CCOC(=O)c1c(Cn2cnc3ccccc32)nc2cc(OC)c(OC)cc2c1-c1ccc(OC)c(OC)c1 | 99 to 100 °C |
| CC(C)Oc1ccc(OCc2ccccc2)cc1-c1nc2cccnc2[nH]1 | 160 to 162 °C |
| OC1(c2nccc3ccccc23)CCNCC1 | 138 to 140 °C |
| CC/C(=N\OC(F)F)c1ccc(Cl)c2nc3n(c12)CCCN3c1c(C)nc(OC)nc1C | 199 to 200 °C |
| O=C(Cl)c1ccc(S(=O)(=O)NC(=O)c2ccccc2Cl)cc1 | 198 to 200 °C |
| CC(C)C[C@@H](CC(=O)O)NC(=O)[C@@H](CS)C(F)(F)F | 155 to 156 °C |
| OCc1c(Cl)nc(C2CCCCC2)n1Cc1ccccc1 | 160 to 161 °C |
| CC(=O)OC1Oc2ccc(C#N)cc2C1(C)C (stereo unspecified) | 138 to 140 °C |
| Cc1nc(-c2cccc(C(=O)c3ccccc3)c2)sc1C(=O)O | 213 to 215 °C |
| CC(Sc1nc2ccccc2s1)C(N)=O (stereo unspecified) | 144 to 145 °C |
| COC(=O)C=Cc1cn(Cc2ccc(C(=O)OC(C)(C)C)cc2OC)c2cc(C(=O)NCC3CCCC3)ccc12 | 163 to 164 °C |
| CC(C)(CCc1cc2nc(Cl)ccc2n1S(=O)(=O)c1ccc2ncsc2c1)C(=O)O | 21 °C |
| COc1nc2ccccc2cc1/C=C/c1cc(CN2CCN(S(C)(=O)=O)CC2)ccc1[N+](=O)[O-] | 156 to 157 °C |
| CCn1cc(C(=O)O)c(=O)c2cc(F)c(N3CCNC(c4ccco4)C3)cc21 (stereo unspecified) | 198 °C |
| Cc1onc(NS(=O)(=O)c2ccccc2)c1Cl | 139 to 141 °C |
| COc1ccc2ccccc2c1CONC(C)=O | 112 °C |
